Laboratory results published in ChEMBL document CHEMBL1201862, “PubChem BioAssay data set” (2004).
Active and inactive are the calls of the source.

Key:
Estrogen receptor beta = Estrogen receptor beta (Homo sapiens, UniProt Q92731);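 note: recombinant ER-beta bound to coactivator SRC1 peptide in presence of estradiol agonist; inhibitors block coactivator peptide binding and lower the FRET signal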
[1] = target: T1, Mannose-6-phosphate isomerase (Homo sapiens, UniProt P34949); experiment: MPI enzyme activity inhibition – biochemical, fluorescence intensity, coupled assay, primary screen (AID 1209)
T1 sequence (P34949 whole entry): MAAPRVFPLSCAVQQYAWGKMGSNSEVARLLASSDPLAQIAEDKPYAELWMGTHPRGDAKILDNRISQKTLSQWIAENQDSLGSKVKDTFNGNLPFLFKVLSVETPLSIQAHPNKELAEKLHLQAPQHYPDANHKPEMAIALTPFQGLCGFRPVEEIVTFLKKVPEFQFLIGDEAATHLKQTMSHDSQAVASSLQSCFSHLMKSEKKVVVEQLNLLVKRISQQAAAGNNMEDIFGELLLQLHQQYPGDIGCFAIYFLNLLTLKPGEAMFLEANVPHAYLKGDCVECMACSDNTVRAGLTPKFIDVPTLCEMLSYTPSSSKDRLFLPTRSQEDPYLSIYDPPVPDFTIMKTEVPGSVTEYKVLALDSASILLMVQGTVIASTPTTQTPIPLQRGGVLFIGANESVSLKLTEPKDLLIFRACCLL

[2] = target: T1, Mannose-6-phosphate isomerase; experiment: MPI inhibition at elevated mannose 6-phosphate – biochemical, fluorescence intensity, high mannose 6-phosphate, primary screen (AID 1220)
[3] = Luminescence Cell-Based Dose Response to Identify Activators of 5'UTR Stem-Loop Driven Prion Protein mRNA Translation in H4-C Neuroglioblastoma Cells. [Related pubchem assays: 1829 (Project Summary), 1814 (Primary HTS)]; format: functional
[4] = Luminescence Cell-Based Dose Response HTS to Identify Activators of Luciferase Translation or Activity in H4 […] Cells. [Related pubchem assays: 1829 (Project Summary), 1814 (Primary HTS)]; format: functional
H4 = experiment: Luminescence Cell-Based Dose Response HTS to Identify Activators of 5'UTR Stem-Loop Driven Prion Protein mRNA Translation in H4 Neuroglioblastoma Cells. [Related pubchem assays: 1829 (Project Summary), 1814 (Primary HTS)]; format: functional; conditions: Homo sapiens
[5] = Luminescence Cell-Based Dose Response to Identify Activators of Luciferase Translation or Activity in H4-C Neuroglioblastoma Cells. [Related pubchem assays: 1829 (Project Summary), 1814 (Primary HTS)]; format: functional
[6] = Luminescence Cell-Based Dose Confirmation to Identify Activators of 5'UTR Stem-Loop Driven Alpha-Synuclein mRNA Translation in H4 Neuroglioblastoma Cells. [Related pubchem assays: 1829 (Project Summary), 1814 (Primary HTS)]; format: functional
H9c2 = experiment: cells; format: functional, cell-based; conditions: Rattus norvegicus, H9c2, Myocardium;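 note: confirmatory concentration-response retest of ultra-high-throughput screening hits for modulation of myocardial damage; cell death induced by hydrogen peroxide oxidative stress; compound pretreatment for 60 min then peroxide exposure for 2 h; potency is for protecting the cells against peroxide damage rather than for killing them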
Caspase-6 = target: T2, Caspase-6 (Homo sapiens, UniProt P55212); experiment: inhibition of CASP6 peptide cleavage – biochemical, VEID-R110 fluorescence, cherry-pick, dose response (AID 720632)
T2 sequence (P55212 whole entry): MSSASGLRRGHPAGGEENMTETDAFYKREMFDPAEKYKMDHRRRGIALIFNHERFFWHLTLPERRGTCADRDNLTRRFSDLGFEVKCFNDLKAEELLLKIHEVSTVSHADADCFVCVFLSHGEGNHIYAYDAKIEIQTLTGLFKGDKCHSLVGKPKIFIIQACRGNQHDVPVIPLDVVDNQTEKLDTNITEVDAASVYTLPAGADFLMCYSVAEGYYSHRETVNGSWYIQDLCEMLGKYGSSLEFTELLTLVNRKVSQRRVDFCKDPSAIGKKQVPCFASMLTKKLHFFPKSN

[7] = target: T3, RNA-binding protein pos-1 (Caenorhabditis elegans, UniProt G5EF15); experiment: disruptors of C. elegans POS-1 RNA interaction – biochemical, fluorescence polarization, dose response (AID 1964);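 note: purified POS-1 fused to maltose binding protein made in E. coli; potency of compounds blocking POS-1 binding to fluorescent RNA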
T3 sequence (G5EF15 whole entry): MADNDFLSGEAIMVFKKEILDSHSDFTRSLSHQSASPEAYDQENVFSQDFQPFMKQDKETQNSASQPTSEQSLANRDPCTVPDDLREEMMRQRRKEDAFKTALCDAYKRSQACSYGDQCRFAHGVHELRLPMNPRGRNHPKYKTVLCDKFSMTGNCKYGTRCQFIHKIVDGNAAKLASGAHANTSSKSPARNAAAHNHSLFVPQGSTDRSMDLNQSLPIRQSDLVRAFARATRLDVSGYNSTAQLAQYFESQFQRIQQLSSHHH

[8] = system: Streptococcus sp. 'group A'; experiment: Streptococcus pyogenes SK(-)GAS viability under kanamycin – luminescence, BacTiterGlo, confirmation, counter-screen for streptokinase expression inhibitor project, dose response (AID 1900); format: functional, organism-based; conditions: Streptococcus sp. 'group A'
[9] = target: T4, Zinc finger protein mex-5 (Caenorhabditis elegans, UniProt Q9XUB2); experiment: potency of MEX-5 RNA-binding blockers – biochemical, C. elegans, fluorescence polarization, dose response (AID 1960)
T4 sequence (Q9XUB2 whole entry): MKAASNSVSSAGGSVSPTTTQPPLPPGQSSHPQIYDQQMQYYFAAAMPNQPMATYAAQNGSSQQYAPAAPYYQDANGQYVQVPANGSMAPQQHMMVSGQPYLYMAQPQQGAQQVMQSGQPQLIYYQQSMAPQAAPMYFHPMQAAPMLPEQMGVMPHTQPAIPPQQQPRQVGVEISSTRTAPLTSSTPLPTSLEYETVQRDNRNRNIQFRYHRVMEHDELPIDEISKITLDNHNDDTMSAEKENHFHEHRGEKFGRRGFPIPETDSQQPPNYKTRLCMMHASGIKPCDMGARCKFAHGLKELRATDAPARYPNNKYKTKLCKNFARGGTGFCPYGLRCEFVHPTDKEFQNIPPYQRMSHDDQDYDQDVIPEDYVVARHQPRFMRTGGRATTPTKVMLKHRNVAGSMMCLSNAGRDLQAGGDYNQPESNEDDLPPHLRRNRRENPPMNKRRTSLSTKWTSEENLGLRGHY

Streptokinase A = target: T5, Streptokinase A (Streptococcus pyogenes serotype M1, UniProt P10520); experiment: viability-normalized secreted streptokinase activity reduction – plasminogen activation absorbance, OD405, dose response (AID 1914); format: functional, Streptococcus pyogenes M1 GAS;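 note: secreted streptokinase activity via plasminogen activation per viability signal from cell pellet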
T5 sequence (P10520 whole entry): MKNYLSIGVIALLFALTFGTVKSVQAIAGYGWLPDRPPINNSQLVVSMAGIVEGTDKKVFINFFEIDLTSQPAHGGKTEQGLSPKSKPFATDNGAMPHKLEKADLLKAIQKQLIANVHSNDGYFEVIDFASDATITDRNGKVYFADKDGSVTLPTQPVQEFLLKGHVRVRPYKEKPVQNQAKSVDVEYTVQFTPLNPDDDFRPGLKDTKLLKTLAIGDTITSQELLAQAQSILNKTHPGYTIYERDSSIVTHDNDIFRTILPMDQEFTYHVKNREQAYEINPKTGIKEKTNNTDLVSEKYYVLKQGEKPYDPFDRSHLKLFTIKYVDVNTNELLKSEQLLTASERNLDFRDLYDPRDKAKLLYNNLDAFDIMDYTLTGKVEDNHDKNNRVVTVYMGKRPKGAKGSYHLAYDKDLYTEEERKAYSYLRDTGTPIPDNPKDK

Streptococcus = experiment: GAS UMAA2166 growth inhibition – luminescence, BacTiterGlo, counter-screen for streptokinase expression inhibitor project, dose response (AID 1915); format: functional, organism-based; conditions: Streptococcus;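 note: potency for reduction of bacterial viability or growth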
Nonstructural protein 1 = Nonstructural protein 1 (Influenza A virus, UniProt Q194T2); format: functional, Influenza A virus (A/California/07/2009(H1N1))
Sequence of Nonstructural protein 1 (Q194T2 whole entry): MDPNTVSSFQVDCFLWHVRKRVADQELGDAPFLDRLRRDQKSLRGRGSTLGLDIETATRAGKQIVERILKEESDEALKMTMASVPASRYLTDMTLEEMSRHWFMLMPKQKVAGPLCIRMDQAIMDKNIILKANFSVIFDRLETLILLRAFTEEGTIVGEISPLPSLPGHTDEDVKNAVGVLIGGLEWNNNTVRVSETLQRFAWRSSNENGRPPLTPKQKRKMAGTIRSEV

fMet-Leu-Phe receptor = target: T6, fMet-Leu-Phe receptor (Homo sapiens, UniProt P21462); experiment: formyl peptide receptor binders – dose response (AID 519); format: functional
T6 sequence (P21462 whole entry): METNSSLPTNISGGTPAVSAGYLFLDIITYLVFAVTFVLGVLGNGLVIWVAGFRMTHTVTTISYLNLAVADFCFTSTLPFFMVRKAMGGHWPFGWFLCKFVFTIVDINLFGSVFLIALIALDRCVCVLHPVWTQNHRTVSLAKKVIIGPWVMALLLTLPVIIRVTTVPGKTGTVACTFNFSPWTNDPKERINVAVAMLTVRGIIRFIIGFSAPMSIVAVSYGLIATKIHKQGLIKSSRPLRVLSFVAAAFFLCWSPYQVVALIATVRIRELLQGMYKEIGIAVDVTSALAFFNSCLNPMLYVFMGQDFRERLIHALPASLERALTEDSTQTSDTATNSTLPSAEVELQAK

[10] = Luminescence Cell-Based Dose Confirmation HTS to Identify Activators of 5'UTR Stem-Loop Driven Alpha-Synuclein mRNA Translation in H4 Neuroglioblastoma Cells. [Related pubchem assays: 1829 (Project Summary), 1814 (Primary HTS)]; format: functional
[11] = target: T7, Calpain-2 catalytic subunit (Sus scrofa, UniProt P43367); experiment: m-calpain protease blockers, concentration series – biochemical, fluorogenic peptide substrate, dose response (AID 1420); format: functional
T7 sequence (P43367 whole entry): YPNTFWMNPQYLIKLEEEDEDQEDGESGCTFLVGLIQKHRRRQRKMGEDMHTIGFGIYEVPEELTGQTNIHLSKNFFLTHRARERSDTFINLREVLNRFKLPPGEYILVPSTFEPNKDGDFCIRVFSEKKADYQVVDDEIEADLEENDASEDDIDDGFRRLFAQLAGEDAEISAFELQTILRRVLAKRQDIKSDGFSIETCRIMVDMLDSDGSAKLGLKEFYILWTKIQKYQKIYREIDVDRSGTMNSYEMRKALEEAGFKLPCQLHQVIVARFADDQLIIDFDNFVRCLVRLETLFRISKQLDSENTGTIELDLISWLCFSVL

INS1 = experiment: INS-1E survival protection against cytokine death – cell-based, luminescence, retest, dose response (AID 449756); format: functional; conditions: Rattus norvegicus;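 note: cell death triggered by IL-1 beta plus TNF-alpha plus IFN-gamma mixture; protective hits raise ATP signal compared with cytokine alone wells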
[12] = growth inhibition of yeast DHODH-expressing 3D7 parasites – SYBR Green, dry powder samples, dose response (AID 1159570); format: functional, cell-based;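 note: parasite growth measured after 72 hours of compound exposure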
[13] = toxicity to human HepG2 hepatoma cells – cell-based, plate reader, dry powder samples, cytotoxicity control, dose response (AID 1159569); format: functional;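 note: inhibitor potency with signal falling toward the positive control level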
[14] = P. falciparum Dd2 growth inhibitors, dose response, SYBR Green, cherry-picked samples (AID 1159567); format: functional, cell-based
[15] = Dd2 malaria parasite growth inhibition potency – SYBR Green, dry powder samples, dose response (AID 1159566); format: functional, cell-based;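 note: potency for growth inhibition with lower SYBR green DNA signal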
[16] = growth inhibition of PfATP4-mutant resistant parasites – NITD609-resistant line, SYBR Green, dry powder, dose response (AID 1159571); format: functional, cell-based;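 note: parasites synchronized at ring stage by sorbitol before testing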
[17] = toxicity to human hepatoma HepG2 cells – cell-based, cherry-picked samples, cytotoxicity control, dose response (AID 1159577); format: functional
[18] = Trypanosoma cruzi growth suppression in host cells – NIH3T3 host cells, beta-gal luminescence, confirmation (AID 2044); format: functional, cell-based;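 note: intracellular parasites grown in NIH/3T3 mouse fibroblasts as host cells; luminescent beta-galactosidase reporter signal from transgenic T. cruzi replicating inside host cells; inhibitors lower the luminescence signal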
[19] = NIH3T3 cell viability loss – ATP luminescence, mouse fibroblasts, counter-screen, dose response (AID 2010); format: functional, cell-based;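 note: cells exposed to compound for about 90 hours before reading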
[20] = target: Heat shock protein HSP 90-alpha (Homo sapiens, UniProt P07900); format: functional, organism-based
[21] = viability loss in THP-1 monocytes – THP-1 cells, cytotoxicity control for Vif-APOBEC3G degradation inhibitor project, dose response (AID 1117359); format: functional; conditions: THP-1

Sequence of Estrogen receptor beta (Q92731 whole entry): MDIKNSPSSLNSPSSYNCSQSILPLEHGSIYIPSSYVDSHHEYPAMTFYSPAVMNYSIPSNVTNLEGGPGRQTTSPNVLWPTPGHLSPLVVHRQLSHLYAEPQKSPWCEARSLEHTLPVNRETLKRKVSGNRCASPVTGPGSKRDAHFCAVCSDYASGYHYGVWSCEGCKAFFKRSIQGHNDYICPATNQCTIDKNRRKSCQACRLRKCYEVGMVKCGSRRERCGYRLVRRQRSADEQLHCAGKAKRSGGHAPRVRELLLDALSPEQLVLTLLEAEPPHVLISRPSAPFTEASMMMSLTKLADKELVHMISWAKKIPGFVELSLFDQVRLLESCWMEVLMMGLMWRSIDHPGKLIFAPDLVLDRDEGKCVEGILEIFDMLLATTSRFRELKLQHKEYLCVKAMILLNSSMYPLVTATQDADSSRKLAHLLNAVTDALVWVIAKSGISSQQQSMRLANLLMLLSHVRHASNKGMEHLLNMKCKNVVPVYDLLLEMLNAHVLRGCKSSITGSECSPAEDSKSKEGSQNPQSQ

Compound: O=C(O)CC(Cn1nnnc1S)c1ccccc1 (stereo not drawn)
- IC50 (Estrogen receptor beta): > 50 µM (not active)

Compound: COc1cc(NC(C)=O)c2ncccc2c1[N+](=O)[O-]
- IC50 [1]: > 50 µM (not active)
- IC50 [2]: > 50 µM (not active)

Compound: Nc1c(-c2cccc(Cl)c2)cnc2c(-c3ccccc3)cnn12
- EC50 [3]: 0.478 µM (active)
- EC50 [4]: < 0.1 µM (inconclusive)
- EC50 (H4): 0.785 µM (active)
- EC50 [5]: 1.15 µM (active)
- EC50 [6]: 0.321 µM (active)

Compound: CSc1nc(O)c2c(n1)N=C1CCCC(O)=C1C2c1cccs1 (stereo not drawn)
- IC50 (Estrogen receptor beta): 11.4 µM (active)

Compound: CCOC(=O)C1=C(COC(=O)c2ccc([N+](=O)[O-])o2)NC(=O)NC1C (stereo not drawn)
- IC50 (H9c2): > 79 µM (inactive)
- AC50 (Caspase-6): 30 µM (active)

Compound: CCN(CC)c1ccc(/C=N/C(C#N)=C(\N)C#N)cc1
- EC50 [7]: 281 µM (active)
- EC50 [8]: > 150 µM (not active)
- EC50 [9]: 114 µM (inconclusive)
- EC50 (Streptokinase A): > 150 µM (not active)
- EC50 (Streptococcus): > 150 µM (not active)
- IC50 (Nonstructural protein 1): > 100 µM (active)
- Ki (fMet-Leu-Phe receptor): > 66.7 µM (inactive)

Compound: CCOC(=O)N1CCN(C(C(=O)NC2CCCC2)C(C)C)CC1 (stereo not drawn)
- AC50 (Caspase-6): 12.2 µM (active)

Compound: Cc1ccc(NC2=C/C(=N/S(=O)(=O)c3cccs3)c3ccccc3C2=O)cc1C
- EC50 [3]: 0.348 µM (active)
- EC50 [10]: 0.181 µM (active)
- EC50 [4]: < 0.1 µM (active)
- EC50 (H4): < 0.1 µM (active)
- EC50 [5]: 0.43 µM (active)
- IC50 [11]: 22.3 µM (not active)
- EC50 [6]: 0.318 µM (active)
- AC50 (INS1): 1.56 µM (active)

Compound: COc1ccc(CN2C[C@H](C)[C@@H](OC)CN(C)C(=O)c3ccc(NC(=O)c4nc5ccccc5s4)cc3OC[C@@H]2C)cc1
- AC50 [12]: 5.03 µM (active)
- AC50 [13]: 67.3 µM (active)
- AC50 [14]: 2.9 µM (active)
- AC50 [15]: 2.64 µM (active)
- AC50 [16]: 3.82 µM (active)

Compound: C[C@H]1CN([C@@H](C)CO)C(=O)c2c(c3ccccc3n2C)-c2ccccc2CO[C@@H]1CN(C)Cc1ccc(Cl)c(Cl)c1
- AC50 [12]: 3.11 µM (active)
- AC50 [13]: 18.4 µM (active)
- AC50 [14]: 1.94 µM (active)
- AC50 [15]: 1.43 µM (active)
- AC50 [16]: 1.87 µM (active)

Compound: c1ccc(CN2C[C@@H]3N[C@H](C2)[C@@H]3c2ccc(-c3ccncc3)cc2)cc1
- AC50 [12]: 3.96 µM (active)
- AC50 [13]: 18 µM (active)
- AC50 [14]: 2.35 µM (active)
- AC50 [15]: 1.54 µM (active)
- AC50 [17]: > 39 µM (inactive)
- AC50 [16]: 1.66 µM (active)

Compound: O=[N+]([O-])c1cc(CN2CCN(c3cccc(C(F)(F)F)c3)CC2)c2cccnc2c1O
- EC50 [18]: 0.493 µM (active)
- EC50 [19]: 4.99 µM (active)
- AC50 [20]: 3.53 µM (active)
- AC50 (Caspase-6): 33.8 µM (active)
- CC50 [21]: 2.18 µM (active)
